The values below are quoted from earlier work in patent US5883119A, “Triterpene derivatives with immunosuppressant activity” (Merck & Co., Inc., priority 1996, dated 1999).

For the series, the system named is Kv 1.3 channels (CHO cells transfected with Kv 1.3 channels). The note with it: stated in the method as property of the control blocker.

On to “margatoxin (TIINVKCTSPKQCLPPCKAQFGQSAGAKCMNGKCKCYPH; UniProt P40755 1-39, looked up)”, for which the IC50 (as a rule, the concentration that inhibits the measured activity by half) was 0.1 nM.
